The target of experiment [1] is T1, Bcs1 (mBcs1) (Mus musculus, UniProt Q9CZP5).
T1 construct: gene Bcs1l; full length residues 1-418, C-terminal hexa-His tag, expressed in Pichia pastoris, purified in DDM, homo-heptamer; reconstituted in soy polar lipid membranes for HS-AFM
T1 sequence (Q9CZP5 1-418): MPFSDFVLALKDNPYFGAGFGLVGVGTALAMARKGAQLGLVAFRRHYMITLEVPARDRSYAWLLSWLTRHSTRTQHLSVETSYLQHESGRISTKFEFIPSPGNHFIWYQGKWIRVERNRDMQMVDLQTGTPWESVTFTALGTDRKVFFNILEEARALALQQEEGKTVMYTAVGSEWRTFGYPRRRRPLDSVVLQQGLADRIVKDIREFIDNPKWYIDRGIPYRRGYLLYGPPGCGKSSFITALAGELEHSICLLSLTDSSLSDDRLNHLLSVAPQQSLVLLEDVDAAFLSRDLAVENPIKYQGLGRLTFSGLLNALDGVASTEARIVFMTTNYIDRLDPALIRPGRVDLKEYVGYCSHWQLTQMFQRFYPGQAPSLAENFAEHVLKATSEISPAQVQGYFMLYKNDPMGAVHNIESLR
Nature of the experiment: microscale thermophoresis, RED-tris-NTA labelled Bcs1. Type of experiment: binding. A general note: MST reads how a fluorescent partner responds to local heating, with and without ligand.

Experiment [2] concerns the target T1, Bcs1 (mBcs1). Put plainly: HS-AFM imaging, conformational change on binding. To be noted: 10 µM ATPγS; reconstituted membranes; 10 mM HEPES pH 7.5, 200 mM NaCl, 2 mM MgCl2; ambient temperature.
The target of experiment [3] is T1, Bcs1 (mBcs1). Nature of the experiment: HS-AFM imaging, probability of AMP-PNP conformation, Hill fit. Type of experiment: binding.

pEC50, pKd: −log10 of the molar value.

As a reminder, the pKd is the Kd on a negative log10 scale, so that one unit is a factor of ten. The low end stands for a large Kd, the high end for a small Kd. The term pEC50 denotes −log10 of the EC50, conventionally taken in molar units. Low values mean a high EC50, high ones a low EC50.

`Nc1ncnc2c1ncn2[C@@H]1O[C@H](COP(=O)(O)OP(=O)(O)O)[C@@H](O)[C@H]1O` [ADP] showed a pKd in experiment [1] of about 6.30. With `Nc1ncnc2c1ncn2[C@@H]1O[C@H](COP(=O)(O)OP(=O)(O)OP(O)(O)=S)[C@@H](O)[C@H]1O` [ATPγS], the “HS-AFM imaging, conformational change on binding” value in experiment [2] is “In the presence of ATPγS however, instead of a ring structure, we found a rather flat disk”. As for `Nc1ncnc2c1ncn2[C@@H]1O[C@H](COP(=O)(O)OP(=O)(O)NP(=O)(O)O)[C@@H](O)[C@H]1O` [AMP-PNP], in experiment [3], the pEC50 was about 5.40.

The record behind these values is publication PMC10567702, “A concerted ATPase cycle of the protein transporter AAA-ATPase Bcs1” (Nature Communications, 2023).
